Results taken from patent US20250043360A1, “USE OF RPN11 MARKER IN DETECTION OF MYELOMA AND DISEASE RISK THEREOF, PROGNOSIS ANALYSIS AND TREATMENT MEDICAMENT” (Peking University, priority 2022, published 2025).

How the values were obtained:
Assay type in all cases: cell-based
LP-1 cells [1] = experiment: CCK cell counting experiment, wild-type LP-1 cells; details: vs control group (Vehicle), OPA 10 μM, Capzimin 2 μM, FIG. 7A
Method: (§1) CCK kit was used to detect cell proliferation of LP-1 cells stably overexpressing and knocking down RPN11: after the transfected cells were cultured for 48 h, the cells were digested with 0.25% trypsin and counted, inoculated in a 96-well plate at a concentration of 1×10^4 cells/mL, 100 μL in each well; 10 μL of CCK8 reagent was added to each well of the 96-well plate in the dark, the culture plate was shaken for 3 min, then placed into the incubator to continue culturing for 2 h, and the culture plate was taken out and the OD value was measured at a wavelength of 450 nm with a microplate reader.
(§2) Wild-type or bortezomib-resistant LP-1 cells (LP-1 or LP-1BR) were treated with Vehicle or RPN11 inhibitor (OPA or Capzimin) separately, and the proliferation and apoptosis of LP-1BR cells were detected through CCK cell counting experiment and cell apoptosis experiment.

[2] = system: bortezomib-resistant LP-1 cells (LP-1BR); experiment: CCK cell counting experiment, bortezomib-resistant LP-1 cells; details: LP-1BR cells, vs control group (Vehicle); OPA 10 μM, Capzimin 2 μM; FIG. 7A
Method: as §1, §2

LP-1 cells [3] = experiment: Cell apoptosis experiment, wild-type LP-1 cells; details: vs control group (Vehicle), OPA 10 μM, Capzimin 2 μM, FIG. 7B
Method: (§3) Apoptosis was detected in LP-1 cells stably overexpressing and knocking down RPN11. The cells were treated with camptothecin (CPT) for 24 h, washed with PBS, double-stained with Annexin V-APC/propidium iodide (PI) for 15 min at room temperature in the dark, and cell collection and analysis were conducted on each sample using a FACS Calibur flow cytometer.
as §2

[4] = system: bortezomib-resistant LP-1 cells (LP-1BR); experiment: Cell apoptosis experiment, bortezomib-resistant LP-1 cells; details: LP-1BR cells, vs control group (Vehicle); OPA 10 μM, Capzimin 2 μM; FIG. 7B
Method: as §3, §2

LP-1 cells [5] = experiment: CCK cell counting assay, RPN11 inhibitor combined with Lenalidomide or Dexamethasone; details: vs either agent alone, range of concentrations, FIG. 8
Method: as §1
LP-1 cells were treated with RPN11 inhibitors (OPA or Capzimin) or/and Lenalidomide or Dexamethasone (within a range of concentrations), and the cell proliferation ability was detected using CCK cell counting assay.

c1cnc2c(c1)ccc1cccnc12 [OPA]
proliferation ability (LP-1 cells [1]): significantly reduced | proliferation ability [2]: significantly reduced | number of apoptotic cells (LP-1 cells [3]): significantly increased | number of apoptotic cells [4]: significantly increased | combined treatment effect on inhibiting the growth and proliferation (LP-1 cells [5]; combined with dexamethasone): synergistic effect | combined treatment effect on inhibiting the growth and proliferation (LP-1 cells [5]; combined with lenalidomide): synergistic effect
